From patent publication US20250176904A1, “PRE-DOSING METHOD OF ASSESSING DRUG BENEFITS IN PATIENTS” (priority 2022, published 2025) come the findings set out here.

The test system of test [1] is Male Long Evans rats. As to the kind of experiment: Progressive ratio responding for food (lever press, break point, session duration). The test is classed as in vivo. On the procedure: Animals and housing: Male Long Evans rats were used (source: Charles River Laboratories, St. Constant, Quebec). All study animals were singly housed in a vivarium under a 12 h light:dark cycle (lights on: 06:00 h-18:00 h). All behavioural testing was during the light phase. Rats were placed on a restricted diet regimen, where they were fed once a day with approximately 20 g of standard laboratory chow at the completion of testing procedures (16:00 h-18:00 h). For these animals, water was freely available except during testing. All animal use procedures were performed in accordance with the principles of the Canadian Council on Animal Care (CCAC).
Methods: A total of 72 rats were used in the psilocybin experiment. The basic test design involved training animals to lever press for a food reward (45 mg Bioserv pellets) under a progressive ratio (PR) schedule in which the number of responses required to achieve a pellet increases for successive reinforcers. The progressive ratio was derived from the equation ratio=[5×e^(0.2×reinforcer #)−5], and was as follows: […], etc.
Subjects were administered psilocybin (0.025, 0.05, 0.1 mg/kg) or vehicle control according to Latin square design, in which each animal received each treatment over repeated test sessions with 2-3 day intervals between each testing cycle. Subjects were also subgrouped into low responders (N=24) based on having the lowest average break point measure recorded over 7 days prior to testing and a separate analysis was conducted on this cohort.
Statistical analysis: Data are presented as means±SEM. Data from the progressive ratio task was analysed by one way (treatment) repeated measures ANOVA (Statistica Version 11, Statsoft Inc. [2012]). In the event of a significant main effect, post-hoc comparisons were carried out with Dunnett's test for comparison of drug treatment to vehicle control. Both study cohorts of “All” and “Low responders” were analysed separately. In all cases the accepted level of significance was P<0.05. Effect sizes for group mean differences were also calculated using partial eta squared (Statistica Version 11, Statsoft Inc. [2012]). In addition a correlational analysis (parametric: Pearson R; non-parametric: Spearman R) was conducted at each dose level to look at the relationship between baseline (vehicle) response and magnitude of change in break point and lever press following each psilocybin dose.

The test system of test [2] is healthy volunteers. The note with it: human, in vivo, po.
[3] abbreviates: all 72 rats, psilocybin 0.025, 0.05, 0.1 mg/kg SC vs vehicle, ANOVA main effect.
The mark [4] stands for this setting: low responder subgroup N=24, psilocybin 0.05-0.1 mg/kg relative to vehicle control.

Where “and” joins values, the source holds several entries; their conditions need not be identical. Equal entries are not always repeated. Entries after “also recorded” stand apart in the source; their conditions may differ.

Regarding `CN(C)CCc1c[nH]c2cccc(OP(=O)(O)O)c12` [Psilocybin, 4-phosphoryloxy-N,N-dimethyltryptamine], the “number of lever press” value in test [1] (setting [3]) is given as “no main effect of treatment”. Also, the session duration entry was “no main effect of treatment” in test [1] (setting [3]) and 18.7 ± 2.5 min in test [1] (low responder subgroup N=24, 0.1 mg/kg, mean±SEM). Moreover, the break point result in test [1] (all 72 rats, psilocybin 0.025, 0.05, 0.1 mg/kg SC vs vehicle, post-hoc comparison) was “no treatment group was significantly different to vehicle”; in test [1] (setting [4]), “increases”. Moreover, the “relationship between baseline responding and % change in break point or lever press” value is “no such correlation; also recorded: no significant correlation” in test [1] (low responder subgroup N=24, 0.025 mg/kg SC); “inverse correlation; also recorded: significant correlation” in test [1] (low responder subgroup N=24, 0.05 mg/kg SC, Pearson R and Spearman R); “inverse correlation; also recorded: significant correlation” in test [1] (low responder subgroup N=24, 0.1 mg/kg SC, Pearson R and Spearman R). Moreover, the “session duration (treatment effect)” value in test [1] (low responder subgroup N=24, psilocybin 0.025-0.1 mg/kg vs vehicle, ANOVA) is “no treatment effect”. The lever press entry in test [1] (setting [4]) was “increases”. Further, the “RTI Median Five-Choice Reaction Time 2 Hr” value in test [2] is 381 and 347 and 377 and 386.5 and 446 and 343. Moreover, the “RTI Median Five-Choice Reaction Time 4 Hr” value in test [2] was 330 and 346 and 377 and 413 and 431 and 330.5.
